Source: patent US12077503B2, “Substituted cyclic amides and their use as herbicides” (FMC CORPORATION, priority 2015, dated 2024)

Assays:
Assay type in all cases: in vivo
Kochia (Kochia scoparia) [1] = experiment: Test A preemergence; conditions: Bassia scoparia, pre-emergence, 240 h, preemergence, read-out: Kochia plant response rating; for pest or weed control at 125 g/ha: 125 g ai/ha, 0 to 100 scale where 0 is no effect and 100 is complete control, approx. 10 d; for pest or weed control at 500 g/ha: 500 g ai/ha, visual injury rating about 10 d after treatment, 0 to 100 scale (0 no effect, 100 complete control)
In short: (§1)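 Each rating is a visual injury score from 0 to 100 given about 10 d after treatment, judged against untreated controls kept alongside in the greenhouse. In loam soil–sand blend, seeds got a preemergence directed soil spray, while postemergence plants were 2 to 10 cm tall at spraying.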

[2] = tested on: barnyardgrass (Echinochloa crus-galli); experiment: Test A preemergence; conditions: Echinochloa crus-galli, pre-emergence, 240 h, preemergence, read-out: Barnyardgrass plant response rating; for pest or weed control at 125 g/ha: 125 g ai/ha, 0 to 100 scale where 0 is no effect and 100 is complete control, approx. 10 d; for pest or weed control at 500 g/ha: 500 g ai/ha, visual injury rating about 10 d after treatment, 0 to 100 scale (0 no effect, 100 complete control)
In short: as §1

[3] = tested on: giant foxtail (Setaria faberii); experiment: Test A preemergence; conditions: Setaria faberi, pre-emergence, 240 h, preemergence, read-out: Foxtail, Giant plant response rating; for pest or weed control at 125 g/ha: 125 g ai/ha, 0 to 100 scale where 0 is no effect and 100 is complete control, approx. 10 d; for pest or weed control at 500 g/ha: 500 g ai/ha, visual injury rating about 10 d after treatment, 0 to 100 scale (0 no effect, 100 complete control)
In short: as §1

[4] = tested on: pigweed (Amaranthus retroflexus); experiment: Test A preemergence; conditions: Amaranthus retroflexus, pre-emergence, 240 h, preemergence, read-out: Pigweed plant response rating; for pest or weed control at 125 g/ha: 125 g ai/ha, 0 to 100 scale where 0 is no effect and 100 is complete control, approx. 10 d; for pest or weed control at 500 g/ha: 500 g ai/ha, visual injury rating about 10 d after treatment, 0 to 100 scale (0 no effect, 100 complete control)
[5] = tested on: ragweed (common ragweed, Ambrosia elatior); experiment: Test A preemergence; conditions: Ambrosia artemisiifolia, pre-emergence, 240 h, preemergence, read-out: Ragweed plant response rating; for pest or weed control at 125 g/ha: 125 g ai/ha, 0 to 100 scale where 0 is no effect and 100 is complete control, approx. 10 d; for pest or weed control at 500 g/ha: 500 g ai/ha, visual injury rating about 10 d after treatment, 0 to 100 scale (0 no effect, 100 complete control)
In short: as §1

[6] = tested on: ryegrass, Italian (Italian ryegrass, Lolium multiflorum); experiment: Test A preemergence; conditions: Lolium multiflorum, pre-emergence, 240 h, preemergence, read-out: Ryegrass, Italian plant response rating; for pest or weed control at 125 g/ha: 125 g ai/ha, 0 to 100 scale where 0 is no effect and 100 is complete control, approx. 10 d; for pest or weed control at 500 g/ha: 500 g ai/ha, visual injury rating about 10 d after treatment, 0 to 100 scale (0 no effect, 100 complete control)
In short: as §1

Kochia (Kochia scoparia) [7] = experiment: Test A postemergence; conditions: Bassia scoparia, post-emergence, 240 h, postemergence, read-out: Kochia plant response rating; for pest or weed control at 125 g/ha: 125 g ai/ha, visual injury on 0 to 100 scale (0 no effect, 100 complete control), approx. 10 d; for pest or weed control at 500 g/ha: 500 g ai/ha, 0 to 100 scale, 0 is no effect, 100 is complete control
In short: as §1

[8] = tested on: barnyardgrass (Echinochloa crus-galli); experiment: Test A postemergence; conditions: Echinochloa crus-galli, post-emergence, 240 h, postemergence, read-out: Barnyardgrass plant response rating; for pest or weed control at 125 g/ha: 125 g ai/ha, visual injury on 0 to 100 scale (0 no effect, 100 complete control), approx. 10 d; for pest or weed control at 500 g/ha: 500 g ai/ha, 0 to 100 scale, 0 is no effect, 100 is complete control
In short: as §1

[9] = tested on: giant foxtail (Setaria faberii); experiment: Test A postemergence; conditions: Setaria faberi, post-emergence, 240 h, postemergence, read-out: Foxtail, Giant plant response rating; for pest or weed control at 125 g/ha: 125 g ai/ha, visual injury on 0 to 100 scale (0 no effect, 100 complete control), approx. 10 d; for pest or weed control at 500 g/ha: 500 g ai/ha, 0 to 100 scale, 0 is no effect, 100 is complete control
In short: as §1

[10] = tested on: wheat (Triticum aestivum); experiment: Test A postemergence; conditions: Triticum aestivum, post-emergence, 240 h, postemergence, read-out: Wheat plant response rating; for plant injury at 125 g/ha: 125 g ai/ha, visual injury on 0 to 100 scale (0 no effect, 100 complete control), approx. 10 d; for plant injury at 500 g/ha: 500 g ai/ha, 0 to 100 scale, 0 is no effect, 100 is complete control
In short: as §1

[11] = tested on: barnyardgrass (Echinochloa crus-galli); experiment: Test B flooded paddy test; conditions: Echinochloa crus-galli, 250 g ai/ha, Flood; 0 to 100 scale where 0 is no effect and 100 is complete control; read-out: Barnyardgrass plant response rating
In short: (§2)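 Visual ratings (0 none to 100 complete control) are relative to untreated plants, taken 13–15 d after treatment in a greenhouse. Test material went straight into floodwater standing 3 cm above the soil, kept constant, on plants at the 2-leaf stage.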

[12] = tested on: ducksalad (Heteranthera limosa); experiment: Test B flooded paddy test; conditions: Heteranthera limosa, 250 g ai/ha, Flood; 0 to 100 scale where 0 is no effect and 100 is complete control; read-out: Ducksalad plant response rating
In short: as §2

rice (Oryra sativa) = experiment: Test B flooded paddy test; conditions: Oryza sativa, 250 g ai/ha, Flood; 0 to 100 scale where 0 is no effect and 100 is complete control; read-out: Rice plant response rating
In short: as §2

[13] = tested on: sedge, umbrella (small-flower umbrella sedge, Cyperus difformis); experiment: Test B flooded paddy test; conditions: Cyperus difformis, 250 g ai/ha, Flood; 0 to 100 scale where 0 is no effect and 100 is complete control; read-out: Sedge, Umbrella plant response rating
In short: as §2

SMILES | pest or weed control at 125 g/ha (Kochia (Kochia scoparia) [1]) [%] | pest or weed control at 500 g/ha (Kochia (Kochia scoparia) [1]) [%] | pest or weed control at 125 g/ha [2] [%] | pest or weed control at 500 g/ha [2] [%] | pest or weed control at 125 g/ha [3] [%] | pest or weed control at 500 g/ha [3] [%] | pest or weed control at 125 g/ha [4] [%] | pest or weed control at 500 g/ha [4] [%] | pest or weed control at 125 g/ha [5] [%] | pest or weed control at 500 g/ha [5] [%] | pest or weed control at 125 g/ha [6] [%] | pest or weed control at 500 g/ha [6] [%] | pest or weed control at 125 g/ha (Kochia (Kochia scoparia) [7]) [%] | pest or weed control at 500 g/ha (Kochia (Kochia scoparia) [7]) [%] | pest or weed control at 125 g/ha [8] [%] | pest or weed control at 500 g/ha [8] [%] | pest or weed control at 125 g/ha [9] [%] | pest or weed control at 500 g/ha [9] [%] | plant injury at 125 g/ha [10] [%] | plant injury at 500 g/ha [10] [%] | other results
CN1C[C@H](c2cc(F)cc(F)c2)[C@@H](C(=O)Nc2ncccc2Cl)C1=O [Compound 1097] | 0 | 0 | 0 | 0 | 0 | 0 | 0 | 0 | 0 | 0 | 0 | 0 | 0 | 0 | 0 | 0 | 0 | 0 | 0 | 0 | pest or weed control at 250 g/ha [11]: 0%; pest or weed control at 250 g/ha [12]: 0%; pest or weed control at 250 g/ha (rice (Oryra sativa)): 0%; pest or weed control at 250 g/ha [13]: 0%
Cc1cc([C@H]2CN(C)C(=O)[C@@H]2C(=O)Nc2ccccc2F)ccc1Br [Compound 1098] | 20 | 70 | 90 | 90 | 90 | 90 | 0 | 0 | 0 | 0 | 20 | 50 | 20 | 60 | 80 | 90 | 80 | 90 | 0 | 50 | pest or weed control at 250 g/ha [11]: 0%; pest or weed control at 250 g/ha [12]: 90%; pest or weed control at 250 g/ha (rice (Oryra sativa)): 0%; pest or weed control at 250 g/ha [13]: 0%
